Literature values, collected in patent publication US20220313582A1, “METHOD FOR DYEING KERATINOUS MATERIAL, COMPRISING THE USE OF AN ORGANOSILICON COMPOUND, A CHROMOPHORIC COMPOUND AND A FILM-FORMING POLYMER II” (Henkel AG & Co. KGaA, priority 2019, published 2022).

Details: for solubility in water: 25° C.

Row | solubility in water (in words) (at 25° C.) | SMILES | solubility in water
1 |  | O=S(=O)([O-])c1ccc(N=Nc2c(O)ccc3ccccc23)cc1.[Na+] [Acid Orange 7, sodium salt of 4-[(2-hydroxy-1-naphthyl)azo]benzene sulphonate] | more than 7 g/L
2 |  | O=C([O-])c1c(Cl)c(Cl)c(Cl)c(Cl)c1-c1c2c(Br)cc(=O)c(Br)c-2oc2c(Br)c(O)cc(Br)c12.O=C([O-])c1c(Cl)c(Cl)c(Cl)c(Cl)c1-c1c2c(Br)cc(=O)c(Br)c-2oc2c(Br)c(O)cc(Br)c12.[Na+].[Na+] [Acid Red 92, disodium salt of 3,4,5,6-tetrachloro-2-(1,4,5,8-tetrabromo-6-hydroxy-3-oxoxanthen-9-yl)benzoic acid] | greater than 10 g/L
3 |  | Nc1cc(S(=O)(=O)[O-])cc2cc(S(=O)(=O)[O-])c(N=Nc3ccccc3)c(O)c12.[Na+].[Na+] [Acid Red 33, disodium salt of 5-amino-4-hydroxy-3-(phenylazo)-naphthalene-2,7-disulphonate] | 2.5 g/L
4 | highly soluble | O=C([O-])C1=NN(c2ccc(S(=O)(=O)[O-])cc2)C(=O)C1N=Nc1ccc(S(=O)(=O)[O-])cc1.[Na+].[Na+].[Na+] (stereo not shown) [Acid Yellow 23, trisodium salt of 4,5-dihydro-5-oxo-1-(4-sulfophenyl)-4-((4-sulfophenyl)azo)-1H-pyrazole-3-carboxylic acid] | 
